Here are results for 20 compounds from US12187727B2, “Methods for antagonizing a melanocortin 4 receptor” (Pfizer Inc., priority 2020, dated 2025).

Like-named read-outs stand apart in the source and are kept apart here.

This assay has as its target human Melanocortin-4 receptor (MC4R) (Homo sapiens (Human), UniProt P32245). In words: Functional in vitro MC4R antagonist potency assay (cAMP HTRF in CHO cells). The format is cell-based. The method, then: Example BB. Functional In Vitro MC4R Antagonist Potency Assay
The functional in vitro antagonist potency for test compounds was determined by monitoring intracellular cyclic adenosine monophosphate (cAMP) levels in Chinese hamster ovary (CHO—) cells stably expressing the human Melanocortin-4 receptor (MC4R). Following agonist activation, human MC4R associates with the G-protein complex causing the Gα subunit to exchange bound GDP for GTP, followed by dissociation of the Ga-GTP complex. The activated Gα subunit can couple to downstream effectors to regulate the levels of second messengers or cAMP within the cell. Thereby, determination of intracellular cAMP levels allows for pharmacological characterization. Intracellular cAMP levels are quantitated using a homogenous assay utilizing the Homogeneous Time-Resolved Fluorescence (HTRF) technology from CisBio. The method is a competitive immunoassay between native cAMP produced by cells and the cAMP labelled with the acceptor dye, d2. The two entities then compete for binding to a monoclonal anti-cAMP antibody labeled with cryptate. The specific signal is inversely proportional to the concentration of cAMP in the cells.
Test compounds were solubilized to 30 mM in 100% dimethyl sulfoxide (DMSO) and stored. […] The final compound concentration range in the assay was 400 nM to […], with a final DMSO concentration of 0.1%.
(95% O2: 5% CO2) overnight, with micro-clime lids (Labcyte, Cat No. LLS-0310). […] Cells were incubated with compound for 30 minutes at 37° C. (95% O2: 5% CO2) before addition of 5 μL EC80, agonist stimulation (200 nM α-melanocyte stimulating hormone, aMSH, Bachem) and another 30-minute incubation at 37° C. (95% O2: 5% CO2). Intracellular cAMP levels were quantified as per Cisbio's protocol (5 uL of D2 and then 5 uL Cryptate, incubated for 1-2 hours at room temperature).
Data expressed as nM cAMP were then normalized to control wells using Activity Base (IDBS). Zero percent effect (ZPE) was defined as nM of cAMP generated from ECK, agonist stimulation (200 nM aMSH). In the absence of an antagonist control compound, one hundred percent effect (HPE) was defined as nM of cAMP generated from assay buffer/vehicle only.
For orientation: In TR-FRET formats the signal depends on donor and acceptor labels being close together.

Where [1] appears, read: read-out: Kb (nM) Antagonist geometric mean.
Where [2] appears, read: human MC4R in CHO cells, cAMP HTRF, 200 nM aMSH challenge, Kb from IC50 by Leff-Dougall equation, geometric mean, read-out: Kb (nM) Antagonist geometric.

Chain of human Melanocortin-4 receptor (MC4R) (P32245 whole entry): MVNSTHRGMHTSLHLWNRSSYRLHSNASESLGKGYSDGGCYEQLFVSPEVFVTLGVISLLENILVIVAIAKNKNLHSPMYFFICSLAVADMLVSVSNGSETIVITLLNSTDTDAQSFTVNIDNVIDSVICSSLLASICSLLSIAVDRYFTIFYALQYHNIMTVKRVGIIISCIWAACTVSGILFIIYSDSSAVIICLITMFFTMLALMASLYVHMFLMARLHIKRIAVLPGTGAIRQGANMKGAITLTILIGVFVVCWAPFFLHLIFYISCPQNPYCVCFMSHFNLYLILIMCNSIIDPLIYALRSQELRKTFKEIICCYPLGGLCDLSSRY

What is called Kb is the equilibrium dissociation constant of an antagonist, usually derived from a functional assay. For `Cc1nc2c(cc1-c1ncccn1)CC[C@@]1(CCN(C(=O)Cc3cc(F)c(F)c(F)c3)C1)N2` [Example 54, 1-[(2S)-7-methyl-6-(pyrimidin-2-yl)-3,4-dihydro-1H-spiro[1,8-naphthyridine-2,3′-pyrrolidin]-1′-yl]-2-(3,4,5-trifluorophenyl)ethan-1-one], the antagonist equilibrium constant (Kb) under setting [1] amounted to 4.1 nM.

As to `COc1cnc(-c2cc3c(nc2C)N[C@@]2(CC3)CCN(C(=O)[C@H](C)c3cc(OC)ncc3F)C2)nc1` [Example 67, (2R)-2-(5-fluoro-2-methoxypyridin-4-yl)-1-[(2S)-6-(5-methoxypyrimidin-2-yl)-7-methyl-3,4-dihydro-1H-spiro[1,8-naphthyridine-2,3′-pyrrolidin]-1′-yl]propan-1-one], the Kb under setting [1] stood at 14 nM. Still for that read-out and setting: for `Cc1nc2c(cc1-c1ncccn1)CC[C@@]1(CCN(C(=O)Cc3ccc(C(F)(F)F)cc3)C1)N2` [Example 73, 1-[(2S)-7-methyl-6-(pyrimidin-2-yl)-3,4-dihydro-1H-spiro[1,8-naphthyridine-2,3′-pyrrolidin]-1yl]-2-[4-(trifluoromethyl)phenyl]ethan-1-one] the value was 17 nM; for `[2H]C([2H])([2H])Oc1cc([C@@H](C)C(=O)N2CC[C@@]3(CCc4cc(-c5ncccn5)c(C)nc4N3)C2)c(F)cn1` [Example 74, (2R)-2-{5-fluoro-2-[(^2H3)methyloxy]pyridin-4-yl}-1-[(2S)-7-methyl-6-(pyrimidin-2-yl)-3,4-dihydro-1H-spiro[1,8-naphthyridine-2,3′-pyrrolidin]-1′-yl]propan-1-one], 0.6 nM. `COc1cc([C@@H](C)C(=O)N2CC[C@]3(CCc4cc(-c5nnn(C)n5)c(C)nc4N3)C2)c(F)cn1` [Example 116, (2R)-2-(5-fluoro-2-methoxypyridin-4-yl)-1-[(2R)-7-methyl-6-(2-methyl-2H-tetrazol-5-yl)-3,4-dihydro-1H-spiro[1,8-naphthyridine-2,3′-pyrrolidin]-1′-yl]propan-1-one]: under setting [2], the Kb amounted to 1.7 nM. `COc1cc([C@@H](C)C(=O)N2CC[C@@]3(CCc4cc(-c5nc6ccccn6n5)c(C)nc4N3)C2)c(Cl)cn1` [Example 117, (2R)-2-(5-chloro-2-methoxypyridin-4-yl)-1-[(2S)-7-methyl-6-([1,2,4]triazolo[1,5-a]pyridin-2-yl)-3,4-dihydro-1H-spiro[1,8-naphthyridine-2,3′-pyrrolidin]-1′-yl]propan-1-one]: the Kb under setting [2] was 0.07 nM.

As for `COc1cc([C@@H](C)C(=O)N2CC[C@@]3(CCc4cc(-c5cnn(C)n5)c(C)nc4N3)C2)c(F)cn1` [Example 118, (2R)-2-(5-fluoro-2-methoxypyridin-4-yl)-1-[(2S)-7-methyl-6-(2-methyl-2H-1,2,3-triazol-4-yl)-3,4-dihydro-1H-spiro[1,8-naphthyridine-2,3′-pyrrolidin]-1′-yl]propan-1-one], under setting [2], the Kb stood at 0.93 nM. The same measure, in the same setting: for `COc1cc([C@@H](C)C(=O)N2CC[C@@]3(CCc4cc(-c5cnn(C)n5)c(C)nc4N3)C2)c(Cl)cn1` [Example 119, (2R)-2-(5-chloro-2-methoxypyridin-4-yl)-1-[(2S)-7-methyl-6-(2-methyl-2H-1,2,3-triazol-4-yl)-3,4-dihydro-1H-spiro[1,8-naphthyridine-2,3′-pyrrolidin]-1′-yl]propan-1-one] the value was above 1.1 nM; for `COc1cc([C@@H](C)C(=O)N2CC[C@@]3(CCc4cc(-c5nc(C(F)F)n(C)n5)c(C)nc4N3)C2)c(Cl)cn1` [Example 120, (2R)-2-(5-chloro-2-methoxypyridin-4-yl)-1-{(2S)-6-[5-(difluoromethyl)-1-methyl-1H-1,2,4-triazol-3-yl]-7-methyl-3,4-dihydro-1H-spiro[1,8-naphthyridine-2,3′-pyrrolidin]-1′-yl}propan-1-one], 0.08 nM.

With `Cc1nc2c(cc1-c1nc(C(F)F)n(C)n1)CC[C@@]1(CCN(C(=O)Cc3ccc(F)c(F)c3)C1)N2` [Example 121, 1-{(2S)-6-[5-(difluoromethyl)-1-methyl-1H-1,2,4-triazol-3-yl]-7-methyl-3,4-dihydro-1H-spiro[1,8-naphthyridine-2,3′-pyrrolidin]-1′-yl}-2-(3,4-difluorophenyl)ethan-1-one], under setting [2], the Kb worked out at 4 nM.

As for `COc1cc([C@@H](C)C(=O)N2CC[C@@]3(CCc4cc(-c5nc(C(F)F)n(C)n5)c(C)nc4N3)C2)c(F)cn1` [Example 122, (2R)-1-{(2S)-6-[5-(difluoromethyl)-1-methyl-1H-1,2,4-triazol-3-yl]-7-methyl-3,4-dihydro-1H-spiro[1,8-naphthyridine-2,3′-pyrrolidin]-1′-yl}-2-(5-fluoro-2-methoxypyridin-4-yl)propan-1-one], under setting [2], the Kb amounted to 0.11 nM.

For `COc1cc([C@@H](C)C(=O)N2CC[C@@]3(CCc4cc(C5CCOCC5)c(C)nc4N3)C2)c(F)cn1` [Example 131, (2R)-2-(5-fluoro-2-methoxypyridin-4-yl)-1-[(2S)-7-methyl-6-(oxan-4-yl)-3,4-dihydro-1H-spiro[1,8-naphthyridine-2,3′-pyrrolidin]-1′-yl]propan-1-one], under setting [2], the antagonist dissociation constant (Kb) was found to be 16 nM. With `COc1cc([C@@H](C)C(=O)N2CC[C@@]3(CCc4cc(-c5cn(C(F)F)c(C)n5)c(C)nc4N3)C2)c(F)cn1` [Example 138, (2R)-1-{(2S)-6-[1-(difluoromethyl)-2-methyl-1H-imidazol-4-yl]-7-methyl-3,4-dihydro-1H-spiro[1,8-naphthyridine-2,3′-pyrrolidin]-1′-yl}-2-(5-fluoro-2-methoxypyridin-4-yl)propan-1-one], the Kb under setting [2] worked out at 0.44 nM. Same read-out and setting: for `COc1cc([C@@H](C)C(=O)N2CC[C@@]3(CCc4cc(-c5ccc(F)cn5)c(C)nc4N3)C2)c(F)cn1` [Example 139, (2R)-2-(5-fluoro-2-methoxypyridin-4-yl)-1-[(2S)-6-(5-fluoropyridin-2-yl)-7-methyl-3,4-dihydro-1H-spiro[1,8-naphthyridine-2,3′-pyrrolidin]-1′-yl]propan-1-one] the value was 21 nM; for `COc1cc([C@@H](C)C(=O)N2CC[C@@]3(CCc4cc(-c5ccccn5)c(C)nc4N3)C2)c(F)cn1` [Example 140, (2R)-2-(5-fluoro-2-methoxypyridin-4-yl)-1-[(2S)-7-methyl-6-(pyridin-2-yl)-3,4-dihydro-1H-spiro[1,8-naphthyridine-2,3′-pyrrolidin]-1′-yl]propan-1-one], 19 nM; for `COc1cc([C@@H](C)C(=O)N2CC[C@@]3(CCc4cc(-c5ccnnc5)c(C)nc4N3)C2)c(F)cn1` [Example 141, (2R)-2-(5-fluoro-2-methoxypyridin-4-yl)-1-[(2S)-7-methyl-6-(pyridazin-4-yl)-3,4-dihydro-1H-spiro[1,8-naphthyridine-2,3′-pyrrolidin]-1′-yl]propan-1-one], 29 nM.

Regarding `COc1cc([C@@H](C)C(=O)N2CC[C@@]3(CCc4cc(-c5nccc(C(F)(F)F)n5)c(C)nc4N3)C2)c(F)cn1` [Example 143, (2R)-2-(5-fluoro-2-methoxypyridin-4-yl)-1-{(2S)-7-methyl-6-[4-(trifluoromethyl)pyrimidin-2-yl]-3,4-dihydro-1H-spiro[1,8-naphthyridine-2,3′-pyrrolidin]-1′-yl}propan-1-one], under setting [2], the Kb turned out to be 2.6 nM.

With `COc1cc([C@@H](C)C(=O)N2CC[C@@]3(CCc4cc(-c5ncc(Cl)cn5)c(C)nc4N3)C2)c(F)cn1` [Example 144, (2R)-1-[(2S)-6-(5-chloropyrimidin-2-yl)-7-methyl-3,4-dihydro-1H-spiro[1,8-naphthyridine-2,3′-pyrrolidin]-1′-yl]-2-(5-fluoro-2-methoxypyridin-4-yl)propan-1-one], the Kb under setting [2] amounted to 8.5 nM.

Turning to `COc1cc([C@@H](C)C(=O)N2CC[C@@]3(CCc4cc(-c5ncc(C(F)(F)F)cn5)c(C)nc4N3)C2)c(F)cn1` [Example 145, (2R)-2-(5-fluoro-2-methoxypyridin-4-yl)-1-{(2S)-7-methyl-6-[5-(trifluoromethyl)pyrimidin-2-yl]-3,4-dihydro-1H-spiro[1,8-naphthyridine-2,3′-pyrrolidin]-1′-yl}propan-1-one], the Kb under setting [2] worked out at 54 nM. The same measure, in the same setting: under `COc1cc([C@@H](C)C(=O)N2CC[C@@]3(CCc4cc(-c5ncc(F)cn5)c(C)nc4N3)C2)c(F)cn1` [Example 146, (2R)-2-(5-fluoro-2-methoxypyridin-4-yl)-1-[(2S)-6-(5-fluoropyrimidin-2-yl)-7-methyl-3,4-dihydro-1H-spiro[1,8-naphthyridine-2,3′-pyrrolidin]-1′-yl]propan-1-one] stands 1.2 nM.
